{"source": "patent US6893633B2", "about": "“Methods and compositions for promoting the maturation of monocytes” (Maxim Pharmaceuticals, Inc., priority 2000, dated 2005)", "key": {"[1]": {"test_system": "Plasmodia species", "test": "Treatment of malaria infection", "assay_type": "in vivo", "details": "serotonin 6 mg/day with GM-CSF 100,000 U/kg/day, parenteral", "method": "A subject presenting with malaria is parenterally administered GM-CSF at a rate of 100,000 U/kg/day and serotonin at a dosage of 6 mg/day. The composition acts to enhance monocyte maturation, thereby allowing the subject's immune system to eradicate cells infected with Plasmodia species. Specifically, serotonin enhances the monocyte maturation-promoting activity of […]. An increase in the number of dendritic cells presenting antigens associated with Plasmodia is observed. T-cells recognize the Plasmodia antigens, as foreign, attack, and kill the cells. The number of infected cells decreases."}, "[2]": {"test_system": "CD86 antigen on human monocytes", "test": "CD86 antigen expression on human monocytes after treatment with histamine and/or GM-CSF", "assay_type": "cell-based", "source_text": "Separation of monocytes. […] Hospital, Göteborg, Sweden. […] Treatment and cell staining."}, "[3]": {"test_system": "CD3+ T cells, CD3-/56+ NK cells, and CD3+/56+ NK/T cells", "details": "apoptosis induced by autologous MO or GR; p<0.001", "source_text": "(§1) In human liver, NK-cells as well as NK/T-cells are much more abundant than in peripheral blood. […] All data are the mean±s.e.m. (n=15-30 blood donors)."}, "[4]": {"test_system": "prostate cancer", "details": "histamine dihydrochloride 4 mg/day with CSF 300,000 U/kg/day and IL-12 100,000 U/kg/day", "method": "A subject presenting with prostate cancer is administered 300,000 U/kg/day of CSF, 100,000 U/kg/day of IL-12, and histamine dihydrochloride at a dose of 4 mg/day."}, "[5]": {"test_system": "monocytes HLA-DR expression"}, "[6]": {"test_system": "NK cells", "details": "human, 25 μM", "source_text": "as §1"}, "[7]": {"test_system": "NK/T cells", "details": "human, 25 μM", "source_text": "as §1"}, "[8]": {"test_system": "T cells", "details": "human, 25 μM", "source_text": "as §1"}, "[9]": {"test_system": "malignant melanoma", "details": "melanoma patients with stage III or stage IV disease; cited from earlier work"}, "[10]": {"test_system": "metastatic melanoma of the liver", "details": "histamine phosphate 10 mg/day with G-CSF 200,000 U/kg/day", "method": "A subject presenting with metastatic melanoma of the liver is administered 200,000 U/kg/day of G-CSF and histamine phosphate at a dose of 10 mg/day."}}, "data": [{"compound": "NCCc1c[nH]c2ccc(O)cc12", "note": "[serotonin]", "values": [{"measurement": "number of dendritic cells presenting antigens associated with Plasmodia", "setting": "[1]", "result": "increase"}, {"measurement": "number of infected cells", "setting": "[1]", "result": "decreases"}]}, {"compound": "Cl.Cl.NCCc1c[nH]cn1", "note": "[histamine, histamine dihydrochloride]", "values": [{"measurement": "intensity of cell surface expression of CD86", "setting": "[2]; histamine treatment alone", "result": "moderately enhanced"}, {"measurement": "prevention of apoptosis in all cell types", "setting": "[3]", "result": "significantly prevented"}, {"measurement": "tumor mass", "setting": "[4]", "result": "decrease"}, {"measurement": "monocytes HLA-DR expression", "setting": "[5]", "result": "up-regulated"}]}, {"compound": "OO", "note": "[hydrogen peroxide]", "values": [{"measurement": "NK cells that became apoptotic", "setting": "[6]", "result": "65±7", "unit": "%"}, {"measurement": "NK/T cells that became apoptotic", "setting": "[7]", "result": "78±7", "unit": "%"}, {"measurement": "T cells that became apoptotic", "setting": "[8]", "result": "35±5", "unit": "%"}]}, {"compound": "granulocyte-macrophage colony-stimulating factor [GM-CSF]", "values": [{"measurement": "mean of the monocytes that expressed CD86", "setting": "[2]; overnight incubation (16 hrs), GM-CSF 0.15 μg/ml, histamine dihydrochloride 10 μM", "result": 88, "unit": "%"}, {"measurement": "median survival time vs matched control patients", "setting": "[9]", "result": "increased by a factor of three"}]}, {"compound": "NCCc1c[nH]cn1.O=P(O)(O)O", "note": "[histamine phosphate]", "values": [{"measurement": "tumor mass", "setting": "[10]", "result": "decrease"}]}]}
